In patent publication US8586755B2, “Substituted nicotinamides as KCNQ2/3 modulators” (Grünenthal GmbH, priority 2009, dated 2013):

Biological target: T1, KCNQ2/3 channels (Homo sapiens, UniProt O43525+O43526)
T1 construct: expressed in transfected cells
Assay: Fluorescence assay using a voltage sensitive dye (fluorimetry)
Type: cell-based
Details: CHO-K1 cells expressing KCNQ2/3 channels; for EC50: agonistic activity; for Emax: retigabine 50 μM = 100%, read-out: Fluorimetry % efficacy (retigabine 50 μM = 100%)
Method: Pharmacological Experiments Fluorescence Assay Using a Voltage Sensitive Dye
Human CHO-K1 cells expressing KCNQ2/3 channels are cultivated adherently at 37° C., 5% CO2 and 95% humidity in cell culture bottles (e.g. 80 cm^2 TC flasks, Nunc) with DMEM-high glucose (Sigma Aldrich, D7777) including 10% FCS (PAN Biotech, e.g. 3302-P270521) or alternatively MEM Alpha Medium (1×, liquid, Invitrogen, #22571), 10% fetal calf serum (FCS) (Invitrogen, #10270-106, heat-inactivated) and the necessary selection antibiotics.
Before being sown out for the measurements, the cells are washed with a 1×DPBS buffer without Ca^2+/Mg^2+ (e.g. Invitrogen, #14190-094) and detached from the bottom of the culture vessel by means of Accutase (PAA Laboratories, #L11-007) (incubation with Accutase for 15 min at 37° C.). The cell count then present is determined using a CASY™ cell counter (TCC model, Schärfe System) in order subsequently to apply, depending on the density optimization for the individual cell line, 20,000-30,000 cells/well/100 μl of the described nutrient medium to 96-well measuring plates of the Corning™ CellBIND™ type (Flat Clear Bottom Black Polystyrene Microplates, #3340). Incubation is then carried out for one hour at room temperature, without gassing or adjusting the humidity, followed by incubation for 24 hours at 37° C., 5% CO2 and 95% humidity.
The voltage-sensitive fluorescent dye from the Membrane Potential Assay Kit (Red™ Bulk format part R8123 for FLIPR, MDS Analytical Technologies™) is prepared by dissolving the contents of a vessel Membrane Potential Assay Kit Red Component A in 200 ml of extracellular buffer (ES buffer, 120 mM NaCl, 1 mM KCl, 10 mM HEPES, 2 mM CaCl2, 2 mM MgCl2, 10 mM glucose; pH 7.4). After removal of the nutrient medium, the cells are washed with 200 μl of ES buffer, then covered with a layer of 100 μl of the dye solution prepared above and incubated for 45 min at room temperature with the exclusion of light.
The fluorescence measurements are carried out with a BMG Labtech FLUOstar™ BMG Labtech NOVOstar™ or BMG Labtech POLARstar™ instrument (525 nm excitation, 560 nm emission, Bottom Read mode). After incubation of the dye, 50 μl of the test substances in the desired concentrations, or 50 μl of ES buffer for control purposes, are introduced into separate cavities of the measuring plate and incubated for 30 min at room temperature while being shielded from light. The fluorescence intensity of the dye is then measured for 5 min and the fluorescence value F1 of each well is thus determined at a given, constant time. 15 μl of a […] KCl solution ([…]) are then added to each well. The change in fluorescence is subsequently measured until all the relevant measured values have been obtained (mainly 5-30 min). At a given time after KCl application, a fluorescence value F2 is determined, in this case at the time of the fluorescence peak.
For calculation, the fluorescence intensity F2 is compared with the fluorescence intensity F1, and the agonistic activity of the target compound on the potassium channel is determined therefrom. F2 and F1 are calculated as follows: […]
In order to determine whether a substance has agonistic activity,
A substance has an agonistic activity on the potassium channel when
[formula] it is possible to conclude that a target compound has agonistic activity if an increase in
[formula] is to be observed as the dosage of the target compound increases.
Calculations of EC50 values are carried out with the aid of ‘Prism v4.0’ software (GraphPad Software™).

SMILES	EC50	Emax
O=C(NCC1CC2CCC1C2)c1cccnc1SCCCc1cc(F)cc(C(F)(F)F)c1 (stereo not shown) [compound 69, N-(5-Bicyclo[2.2.1]heptanyl-methyl)-2-[3-[3-fluoro-5-(trifluoromethyl)-phenyl]-propylsulfanyl]-pyridine-3-carboxylic acid amide]	140 nM	259%
COc1cccc(CCCSc2ncccc2C(=O)NCC2CC3CCC2C3)c1 (stereo not shown) [compound 70, N-(5-Bicyclo[2.2.1]heptanyl-methyl)-2-[3-(3-methoxyphenyl)-propylsulfanyl]-pyridine-3-carboxylic acid amide]	244 nM	308%
O=C(NCc1ccc(F)c(F)c1)c1cccnc1SCCCc1ccc(F)cc1 [compound 71, N-[(3,4-Difluoro-phenyl)-methyl]-2-[3-(4-fluorophenyl)-propylsulfanyl]-pyridine-3-carboxylic acid amide]	72 nM	107%
O=C(NCc1ccc2c(c1)CCO2)c1cccnc1SCCCc1ccc(F)cc1 [compound 72, N-(2,3-Dihydro-benzofuran-5-yl-methyl)-2-[3-(4-fluorophenyl)-propylsulfanyl]-pyridine-3-carboxylic acid amide]	85 nM	85%
O=C(NCC1CC2CCC1C2)c1cccnc1SCCCc1cccc(O)c1 (stereo not shown) [compound 73, N-(5-Bicyclo[2.2.1]heptanyl-methyl)-2-[3-(3-hydroxyphenyl)-propylsulfanyl]-pyridine-3-carboxylic acid amide]	377 nM	268%
CC(CCc1ccc(F)cc1)Sc1ncccc1C(=O)NCC1CC2CCC1C2 (stereo not shown) [compound 74, N-(5-Bicyclo[2.2.1]heptanyl-methyl)-2-[[3-(4-fluorophenyl)-1-methyl-propyl]sulfanyl]-pyridine-3-carboxylic acid amide]	62 nM	260%
CC(CSc1ncccc1C(=O)NCC1CC2CCC1C2)Cc1ccc(F)cc1 (stereo not shown) [compound 75, N-(5-Bicyclo[2.2.1]heptanyl-methyl)-2-[[3-(4-fluorophenyl)-2-methyl-propyl]sulfanyl]-pyridine-3-carboxylic acid amide]	37 nM	261%
COc1ccccc1CNC(=O)c1cccnc1SCCCc1ccc(F)cc1 [compound 76, 2-[3-(4-Fluorophenyl)-propylsulfanyl]-N-[(2-methoxyphenyl)-methyl]-pyridine-3-carboxylic acid amide]	–	33%
COc1cccc(CNC(=O)c2cccnc2SCCCc2ccc(F)cc2)c1 [compound 77, 2-[3-(4-Fluorophenyl)-propylsulfanyl]-N-[(3-methoxyphenyl)-methyl]-pyridine-3-carboxylic acid amide]	233 nM	118%
O=C(NCCc1ccccc1)c1cccnc1SCCCc1ccc(F)cc1 [compound 78, 2-[3-(4-Fluorophenyl)-propylsulfanyl]-N-phenethyl-pyridine-3-carboxylic acid amide]	319 nM	53%
O=C(NCc1ccc(OC(F)(F)F)cc1)c1cccnc1SCCCc1ccc(F)cc1 [compound 79, 2-[3-(4-Fluorophenyl)-propylsulfanyl]-N-[[4-(trifluoromethyloxy)-phenyl]-methyl]-pyridine-3-carboxylic acid amide]	101 nM	103%
O=C(NCc1ccc(C(F)(F)F)cc1)c1cccnc1SCCCc1ccc(F)cc1 [compound 80, 2-[3-(4-Fluorophenyl)-propylsulfanyl]-N-[[4-(trifluoromethyl)-phenyl]-methyl]-pyridine-3-carboxylic acid amide]	77 nM	104%
O=C(NCCc1cccnc1)c1cccnc1SCCCc1ccc(F)cc1 [compound 81, 2-[3-(4-Fluorophenyl)-propylsulfanyl]-N-(2-pyridine-3-yl-ethyl)-pyridine-3-carboxylic acid amide]	8020 nM	89%
O=C(NCCc1ccccn1)c1cccnc1SCCCc1ccc(F)cc1 [compound 82, 2-[3-(4-Fluorophenyl)-propylsulfanyl]-N-(2-pyridine-2-yl-ethyl)-pyridine-3-carboxylic acid amide]	6460 nM	96%
O=C(NCc1ccccc1O)c1cccnc1SCCCc1ccc(F)cc1 [compound 83, 2-[3-(4-Fluorophenyl)-propylsulfanyl]-N-[(2-hydroxyphenyl)-methyl]-pyridine-3-carboxylic acid amide]	139 nM	171%
O=C(NCc1cccc(O)c1)c1cccnc1SCCCc1ccc(F)cc1 [compound 84, 2-[3-(4-Fluorophenyl)-propylsulfanyl]-N-[(3-hydroxyphenyl)-methyl]-pyridine-3-carboxylic acid amide]	3510 nM	55%
Cc1cccc(CCNC(=O)c2cccnc2SCCCc2ccc(F)cc2)c1 [compound 85, 2-[3-(4-Fluorophenyl)-propylsulfanyl]-N-[2-(m-tolyl)-ethyl]-pyridine-3-carboxylic acid amide]	394 nM	59%
Cc1ccccc1CCNC(=O)c1cccnc1SCCCc1ccc(F)cc1 [compound 86, 2-[3-(4-Fluorophenyl)-propylsulfanyl]-N-[2-(o-tolyl)-ethyl]-pyridine-3-carboxylic acid amide]	–	26%
O=C(NCc1cccc(OC(F)(F)F)c1)c1cccnc1SCCCc1ccc(F)cc1 [compound 87, 2-[3-(4-Fluorophenyl)-propylsulfanyl]-N-[[3-(trifluoromethyloxy)-phenyl]-methyl]-pyridine-3-carboxylic acid amide]	101 nM	116%
O=C(NCc1ccc(O)cc1)c1cccnc1SCCCc1ccc(F)cc1 [compound 88, 2-[3-(4-Fluorophenyl)-propylsulfanyl]-N-[(4-hydroxyphenyl)-methyl]-pyridine-3-carboxylic acid amide]	3760 nM	53%
O=C(NCCc1ccncc1)c1cccnc1SCCCc1ccc(F)cc1 [compound 89, 2-[3-(4-Fluorophenyl)-propylsulfanyl]-N-(2-pyridine-4-yl-ethyl)-pyridine-3-carboxylic acid amide]	5450 nM	72%
Cc1ccc(CCNC(=O)c2cccnc2SCCCc2ccc(F)cc2)cc1 [compound 90, 2-[3-(4-Fluorophenyl)-propylsulfanyl]-N-[2-(p-tolyl)-ethyl]-pyridine-3-carboxylic acid amide]	–	37%
CC(CCSc1ncccc1C(=O)NCC1CC2CCC1C2)c1ccc(F)cc1 (stereo not shown) [compound 91, N-(5-Bicyclo[2.2.1]heptanyl-methyl)-2-[3-(4-fluorophenyl)-butylsulfanyl]-pyridine-3-carboxylic acid amide]	184 nM	241%
O=C(NCC1CC2CCC1C2)c1cccnc1SCCCc1cc(F)c(F)cc1F (stereo not shown) [compound 92, N-(5-Bicyclo[2.2.1]heptanyl-methyl)-2-[3-(2,4,5-trifluoro-phenyl)-propylsulfanyl]-pyridine-3-carboxylic acid amide]	138 nM	270%
O=C(NCCCc1ccccn1)c1cccnc1SCCCc1ccc(F)cc1 [compound 93, 2-[3-(4-Fluorophenyl)-propylsulfanyl]-N-(3-pyridine-2-yl-propyl)-pyridine-3-carboxylic acid amide]	2810 nM	154%
O=C(NCCCc1cccnc1)c1cccnc1SCCCc1ccc(F)cc1 [compound 94, 2-[3-(4-Fluorophenyl)-propylsulfanyl]-N-(3-pyridine-3-yl-propyl)-pyridine-3-carboxylic acid amide]	2210 nM	181%
